{"source": "patent US7101533B2", "about": "“Agent for inducing receptor potential” (Kabushiki Kaisha Hayashibara Seibutsu Kagaku Kenkyujo, priority 2002, dated 2006)", "test_system": "retinal nerve cells", "assay": "intracellular calcium experimental method in cultured chick embryo retinal cells with photostimulation (Fluo-4 fluorescence and intracellular potential)", "format": "cell-based", "excerpt": "All the above polymethine organic dye compounds can be obtained in the desired amount either by the method disclosed in “Kanko-Shikiso” (Photosynthetic Dyes), pp. 11–31, edited by Masaaki Hayami, published by Sangyo Tosho Publisher on Oct. 17, 1997; or in accordance therewith. In case the compounds are commercially available, they can be optionally purified prior to use. Evaluation of whether organic dye compounds evoke receptor potential in response to photostimulation in the optic nerve can be determined in accordance with the intracellular calcium experiment method disclosed in “Jikken-Igaku” (Experimental Medicine), Vol. 7, No. 6, edited by Hideaki Karaki et al., published on Apr. 5, 1989 by Yodosha, Co., Ltd., Tokyo, Japan, with a modification that an organic dye compound to be tested coexists in animal retinal cells cultured in a nutrient culture medium containing a fluorescent calcium indicator, followed by detecting the intensity of fluorescence emitted from the indicator or of the electric potential generated intracellularly. […]\nThereafter, Fluo-4 acetoxymethyl ester, commercialized by Molecular Probe, Oregon, U.S.A., a fluorescent calcium indicator, was added to each well of the culture plates to give a concentration of 10 μM, incubated at 37° C. for 30 min, and further incubated for another 30 min similarly as above except for omitting Fluo-4 acetoxymethyl ester. […] The organic dye compounds in Table 1 were respectively dissolved in dimethylsulfoxide and irradiated with a light having a wavelength of 470 to 490 nm to excite Fluo-4 acetoxymethyl ester before or after being added to each culture in each well to give a concentration of 0.0005 to 0.5 μg/ml, followed by detecting the intensity of fluorescence and the intracellular potential at a wavelength of around 510 to 550 nm emitted from the excited Fluo-4 acetoxymethyl ester. […]"}
{"compound": "CCCC1=NN(c2ccc(S(=O)(=O)[O-])cc2)C(=O)C1=CC=C(C=Cc1c(CCC)nn(-c2ccc(S(=O)(=O)[O-])cc2)c1[O-])c1ccccc1.[Na+].[Na+].[Na+]", "note": "[Chemical Formula 14]", "values": [{"measurement": "Fluorescent intensity With calcicludine", "setting": "as above, with 2.5 μM of calcicludine (antagonist of L-, N-, P-type high-threshold calcium channels)", "result": "Unchanged"}, {"measurement": "Fluorescent intensity Without calcicludine", "setting": "chick embryo retinal nerve cells loaded with Fluo-4 acetoxymethyl ester, dye 0.0005 to 0.5 μg/ml, light 470 to 490 nm, emission around 510 to 550 nm, no calcicludine", "result": "Increased"}, {"measurement": "Intracellular potential", "setting": "receptor potential observed as intracellular potential, dye 0.0005 to 0.5 μg/ml, light 470 to 490 nm, absence of calcicludine", "result": "Detected"}]}
